According to patent US20230002397A1, “SMALL MOLECULE DEGRADERS OF HELIOS AND METODS OF USE” (DANA-FARBER CANCER INSTITUTE, INC., priority 2019, published 2023):
Where two headings read alike, the source gives them in different places.

Target: T1, IKZF2 (Homo sapiens, UniProt Q96SW2+Q9UKS7)
T1 construct: CRISPR/Cas9—mediated insertion of the HiBiT peptide tag (Promega™) to the N-terminus of the IKZF2 gene locus; endogenous in cells; host or cells: MOLT4 cells, with CRISPR/Cas9 knock-in of HiBiT at the endogenous IKZF2 locus
Test: HiBit-IKZF2 assay (HiBiT-Helios degradation in MOLT4 cells)
Assay type: cell-based
Settings: for Dmax: 10 μM to 0.00026 μM; for DC50: concentration at which 50% of HiBiT-Helios degradation was achieved
Experimental: The HiBiT protein tagging system was applied to MOLT4 cells via a CRISPR/Cas9—mediated insertion of the HiBiT peptide tag (Promega™) to the N-terminus of the IKZF2 gene locus (Neon™ Transfection System). The resulting HiBiT-Helios stable cell line was treated with the following compounds in triplicates following a 13-point concentration scheme ranging from 10 μM to 0.00026 μM. At the indicated timepoints, the Nano-Glo® HiBiT Lytic Detection System (Promega™) was utilized for detecting bioluminescence of the HiBiT tag in treated cells: abundance of the tag is proportionate to the level of luminescence. Following normalization to DMSO, dose-response curves were plotted (GraphPad Prism) to determine the concentration points at which 50% of HiBiT-Helios degradation was achieved by each compound. The extent of degradation (range of luminescence) from the highest to lowest concentration points was calculated to determine the Dmax.

[1] = MOLT-4, extent of degradation from highest to lowest concentration, read-out: Dmax

T1 sequence (Q9UKS7 whole entry): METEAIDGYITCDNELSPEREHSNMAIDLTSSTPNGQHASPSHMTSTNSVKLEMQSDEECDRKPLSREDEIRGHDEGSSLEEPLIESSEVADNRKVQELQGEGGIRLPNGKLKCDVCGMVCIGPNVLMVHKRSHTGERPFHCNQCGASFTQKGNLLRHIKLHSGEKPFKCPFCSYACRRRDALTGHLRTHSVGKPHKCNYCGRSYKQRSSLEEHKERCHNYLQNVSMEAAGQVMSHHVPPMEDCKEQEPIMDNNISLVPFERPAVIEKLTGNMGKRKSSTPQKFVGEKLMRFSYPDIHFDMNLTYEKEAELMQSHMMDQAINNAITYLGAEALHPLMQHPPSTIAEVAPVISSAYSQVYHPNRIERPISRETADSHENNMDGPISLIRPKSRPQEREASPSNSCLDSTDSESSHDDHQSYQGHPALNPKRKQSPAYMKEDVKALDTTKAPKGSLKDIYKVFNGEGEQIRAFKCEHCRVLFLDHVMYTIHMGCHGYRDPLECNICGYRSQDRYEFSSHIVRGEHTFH
T1 sequence (Q96SW2 whole entry): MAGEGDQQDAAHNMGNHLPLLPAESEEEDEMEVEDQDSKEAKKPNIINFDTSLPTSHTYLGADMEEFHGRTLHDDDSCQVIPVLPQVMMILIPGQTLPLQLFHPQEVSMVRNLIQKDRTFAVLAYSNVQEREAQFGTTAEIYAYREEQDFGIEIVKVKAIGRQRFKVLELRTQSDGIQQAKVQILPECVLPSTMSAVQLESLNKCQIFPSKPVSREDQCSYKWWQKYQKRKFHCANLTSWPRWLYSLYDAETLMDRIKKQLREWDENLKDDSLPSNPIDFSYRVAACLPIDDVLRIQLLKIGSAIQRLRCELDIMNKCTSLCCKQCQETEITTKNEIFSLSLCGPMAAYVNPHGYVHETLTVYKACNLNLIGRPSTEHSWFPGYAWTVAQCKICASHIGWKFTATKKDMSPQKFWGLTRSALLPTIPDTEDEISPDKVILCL
T1 sequence (Q16531 whole entry partner): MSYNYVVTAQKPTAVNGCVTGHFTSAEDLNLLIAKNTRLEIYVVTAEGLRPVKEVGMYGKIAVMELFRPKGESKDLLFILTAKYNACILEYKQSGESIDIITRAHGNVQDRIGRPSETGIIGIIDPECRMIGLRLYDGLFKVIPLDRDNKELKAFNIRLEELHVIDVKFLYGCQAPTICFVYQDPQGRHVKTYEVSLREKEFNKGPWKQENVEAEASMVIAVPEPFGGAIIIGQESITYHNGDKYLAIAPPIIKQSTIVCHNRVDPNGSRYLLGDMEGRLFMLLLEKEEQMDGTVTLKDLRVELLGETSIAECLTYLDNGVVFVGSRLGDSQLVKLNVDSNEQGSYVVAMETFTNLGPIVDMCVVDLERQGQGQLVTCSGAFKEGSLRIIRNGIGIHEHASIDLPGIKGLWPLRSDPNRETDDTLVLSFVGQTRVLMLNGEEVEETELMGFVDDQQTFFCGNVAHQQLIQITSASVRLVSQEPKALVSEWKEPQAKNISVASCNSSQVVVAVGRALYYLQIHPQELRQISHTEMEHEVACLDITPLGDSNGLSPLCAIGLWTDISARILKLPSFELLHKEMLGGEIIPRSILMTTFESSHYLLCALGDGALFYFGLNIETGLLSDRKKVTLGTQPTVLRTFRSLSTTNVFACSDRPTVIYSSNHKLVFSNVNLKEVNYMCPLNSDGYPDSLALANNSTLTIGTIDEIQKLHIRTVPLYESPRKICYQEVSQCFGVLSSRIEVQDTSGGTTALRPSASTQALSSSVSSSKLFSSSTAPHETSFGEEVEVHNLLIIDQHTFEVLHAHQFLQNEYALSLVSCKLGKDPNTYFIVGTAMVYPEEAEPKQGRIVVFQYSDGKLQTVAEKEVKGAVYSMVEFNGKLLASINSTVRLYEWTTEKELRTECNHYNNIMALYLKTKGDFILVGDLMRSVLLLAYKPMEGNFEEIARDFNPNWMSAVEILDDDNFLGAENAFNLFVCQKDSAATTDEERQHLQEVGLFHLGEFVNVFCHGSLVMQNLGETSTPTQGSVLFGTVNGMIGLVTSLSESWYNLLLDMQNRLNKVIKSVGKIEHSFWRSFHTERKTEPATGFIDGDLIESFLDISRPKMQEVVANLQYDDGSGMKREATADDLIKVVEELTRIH

Compound	Dmax [1] [%]	DC50 [nM]	Dmax (extent of degradation from highest to lowest concentration)
O=C1CCC(N2Cc3cc(C4(O)CCN(Cc5ccc6c(c5)C(=O)N(c5ccccc5)C6)CC4)ccc3C2=O)C(=O)N1 (centres unmarked) [Compound 200, 3-(5-(4-hydroxy-1-((3-oxo-2-phenylisoindolin-5-yl)methyl)piperidin-4-yl)-1-oxoisoindolin-2-yl)piperidine-2,6-dione]	> 70	< 10	
O=C1CCC(N2Cc3cc(C4(O)CCN(Cc5ccc6c(c5)CCCO6)CC4)ccc3C2=O)C(=O)N1 (centres unmarked) [Compound 275]	> 70	< 10	
CN(c1ccccc1)S(=O)(=O)c1cccc(CN2CCC(c3ccc4c(c3)CN(C3CCC(=O)NC3=O)C4=O)CC2)c1 (centres unmarked) [Compound 98]	50 to 70	< 10	
O=C1CCC(N2Cc3cc(C4CCN(Cc5nccc(Nc6ccccc6)c5F)CC4)ccc3C2=O)C(=O)N1 (centres unmarked) [Compound 100]	50 to 70	10 to 30	
O=C1CCC(N2Cc3cc(C4(O)CCN(Cc5csc(-c6ccccc6)n5)CC4)ccc3C2=O)C(=O)N1 (centres unmarked) [Compound 33]	> 70	< 10	
O=C1CCC(N2Cc3cc(C4(O)CCN(Cc5ccc(-c6ccccc6)cc5)CC4)ccc3C2=O)C(=O)N1 (centres unmarked) [Compound 206]	> 70	< 10	
O=C1CCC(N2Cc3cc(C4(O)CCN(Cc5ccc6c(c5)C(=O)N(c5ccccc5O)C6)CC4)ccc3C2=O)C(=O)N1 (centres unmarked) [Compound 219]	> 70	< 10	
O=C1CCC(N2Cc3cc(C4CCN(Cc5cccc(C(=O)Nc6ccccc6)c5)CC4)ccc3C2=O)C(=O)N1 (centres unmarked) [Compound 86, 3-((4-(2-(2,6-dioxopiperidin-3-yl)-1-oxoisoindolin-5-yl)piperidin-1-yl)methyl)-N-phenylbenzamide]	50 to 70	< 10	
N#Cc1ccc(CN2CCC(O)(c3ccc4c(c3)CN(C3CCC(=O)NC3=O)C4=O)CC2)cc1 (centres unmarked) [Compound 239]	> 70	< 10	
O=C1CCC(N2Cc3cc(C4(O)CCN(Cc5ccc6ccc(-c7ccccc7)nc6c5)CC4)ccc3C2=O)C(=O)N1 (centres unmarked) [Compound 236]	> 70	< 10	
O=C1CCC(N2Cc3cc(C4CCN(Cc5ccc6c(c5)S(=O)(=O)N(c5ccccc5)C6)CC4)ccc3C2=O)C(=O)N1 (centres unmarked) [Compound 80]	30 to 50	30 to 150	
O=C1CCC(N2Cc3cc(C4CCN(Cc5cccc(N6CCN(c7ccccc7)C6=O)c5)CC4)ccc3C2=O)C(=O)N1 (centres unmarked) [Compound 48]	50 to 70	30 to 150	
O=C1CCC(N2Cc3cc(C4(O)CCN(Cc5cccc(OCc6ccccc6)c5)CC4)ccc3C2=O)C(=O)N1 (centres unmarked) [Compound 277]	> 70	< 10	
O=C1CCC(N2Cc3cc(C4CCN(Cc5ccc(S(=O)(=O)N6CC7C(C6)C7(F)F)cc5)CC4)ccc3C2=O)C(=O)N1 (centres unmarked) [Compound 58]	30 to 50	10 to 30	
O=C1CCC(N2Cc3cc(C4CCN(Cc5cccc(N6C(=O)Cc7ccccc76)c5)CC4)ccc3C2=O)C(=O)N1 (centres unmarked) [Compound 95]	50 to 70	< 10	
COc1cccc(CN2CCC(O)(c3ccc4c(c3)CN(C3CCC(=O)NC3=O)C4=O)CC2)c1 (centres unmarked) [Compound 261]	> 70	< 10	

Other lines, results leading:

Dmax [1] [%]	DC50 [nM]	Dmax (extent of degradation from highest to lowest concentration)	Compound
50 to 70	10 to 30		O=C1CCC(N2Cc3cc(C4CCN(Cc5cnc(Nc6ccccc6)o5)CC4)ccc3C2=O)C(=O)N1 (centres unmarked) [Compound 191]
	< 10	+++ (“+++” is >70%)	O=C1CCC(N2Cc3cc(C4(O)CCN(Cc5ccc6ncn(-c7ccccc7)c(=O)c6c5)CC4)ccc3C2=O)C(=O)N1 (centres unmarked) [Compound 234]
> 70	< 10		O=C1CCC(N2Cc3cc(C4CCN(Cc5ccc6c(c5)C(=O)N(c5cccc(O)c5)C6)CC4)ccc3C2=O)C(=O)N1 (centres unmarked) [Compound 217]
50 to 70	< 10		O=C1CCC(N2Cc3cc(C4CCN(Cc5ccc6c(c5)C(=O)N(c5ncccc5F)C6)CC4)ccc3C2=O)C(=O)N1 (centres unmarked) [Compound 221]
50 to 70	< 10		O=C1CCC(N2Cc3cc(C4CCN(Cc5cccc(Nc6ncccc6F)c5)CC4)ccc3C2=O)C(=O)N1 (centres unmarked) [Compound 133]
50 to 70	< 10		O=C1CCC(N2Cc3cc(C4CCN(Cc5cccc(Nc6ncc(Cl)cn6)c5)CC4)ccc3C2=O)C(=O)N1 (centres unmarked) [Compound 227]
50 to 70	30 to 150		O=C1CCC(N2Cc3cc(C4CCN(Cc5ccccc5)C(CO)C4)ccc3C2=O)C(=O)N1 (centres unmarked) [Compound 212]
30 to 50	30 to 150		O=C1CCC(N2Cc3cc(C4CCN(Cc5cccnc5Oc5ccccc5)CC4)ccc3C2=O)C(=O)N1 (centres unmarked) [Compound 119]
30 to 50	10 to 30		O=C1CCC(N2Cc3cc(C4CCN(Cc5ccc6c(n5)C(=O)N(c5ccccc5)C6)CC4)ccc3C2=O)C(=O)N1 (centres unmarked) [Compound 172]
